A short description of the series: physchem. Particulars: 60 °C, thermodynamic from solid. How it is done:
• (6) Solubility of Nitrogen-Containing Additive
After 100 mg of the nitrogen-containing additive and 1 L of a solvent were mixed, the resulting mixture was stirred at a rotational speed of 200 rpm at 60° C. for 1 hour using a mixing machine to dissolve the nitrogen-containing additive.

SMILES strings stand for the structures. In brackets after ≈: the same amount, converted by molar mass.

In the case of `c1cc(-c2cccc(-c3ccc4ccc5cccnc5c4n3)c2)cc(-c2cccc(-c3ccc4ccc5cccnc5c4n3)c2)c1` [ADT-10], the solubility – broadly, how much of the substance goes into solution per volume – at 1 h is 3.6 µg/mL (≈ 6.14 µM) (aqueous buffer) and under 0.1 µg/mL (water).

`c1ccc(-c2ccc3ccc4ccc(-c5ccc(-c6ccc7ccc8ccc(-c9ccccc9)nc8c7n6)cc5)nc4c3n2)cc1` [ADT-15]: the solubility at 1 h was 2.5 µg/mL (≈ 4.26 µM) (aqueous buffer) and under 0.1 µg/mL (water).

Take `c1ccc2c(-c3ccc4ccc5ccc(-c6ccc(-c7ccc8ccc9ccc(-c%10cccc%11ccccc%10%11)nc9c8n7)cc6)nc5c4n3)cccc2c1` [ADT-4]: the solubility at 1 h reads like this: (aqueous buffer) 1.9 µg/mL (≈ 2.77 µM); (water) under 0.1 µg/mL.

Take `Cc1ccc(-c2ccc3ccc4ccc(-c5cccc(-c6ccc7ccc8ccc(-c9ccc(C)cc9)nc8c7n6)c5)nc4c3n2)cc1` [ADT-13]: the solubility at 1 h by setting is: (aqueous buffer) 3.2 µg/mL (≈ 5.21 µM); (water) under 0.1 µg/mL.

With `CC(C)(C)c1ccc(-c2ccc3ccc4ccc(-c5ccc(-c6ccc7ccc8ccc(-c9ccc(C(C)(C)C)cc9)nc8c7n6)cc5)nc4c3n2)cc1` [ADT-16], the solubility at 1 h is 2.8 µg/mL (≈ 4.01 µM) (aqueous buffer) and under 0.1 µg/mL (water).

For the molecule `Cc1cc(C)cc(-c2ccc3ccc4ccc(-c5cccc(-c6ccc7ccc8ccc(-c9cc(C)cc(C)c9)nc8c7n6)c5)nc4c3n2)c1` [ADT-12], the solubility at 1 h was 3.1 µg/mL (≈ 4.82 µM) (aqueous buffer) and under 0.1 µg/mL (water).

`c1cnc2c(c1)ccc1ccc(-c3ccc4ccc(-c5ccc6ccc7cccnc7c6n5)cc4c3)nc12` [ADT-5]: the solubility at 1 h is 4 µg/mL (≈ 8.25 µM) (aqueous buffer) and under 0.1 µg/mL (water).

Regarding `Nc1ccc(-c2ccc3ccc4ccc(-c5cccc(-c6ccc7ccc8ccc(-c9ccc(N)cc9)nc8c7n6)c5)nc4c3n2)cc1` [ADT-20], the solubility at 1 h by setting is: (aqueous buffer) 7.5 µg/mL (≈ 12.2 µM); (water) under 0.1 µg/mL.

With `c1ccc(-c2ccc(-c3ccc4ccc5cccnc5c4n3)cc2)c(-c2ccc(-c3ccc4ccc5cccnc5c4n3)cc2)c1` [ADT-8], the solubility at 1 h was 3.3 µg/mL (≈ 5.62 µM) (aqueous buffer) and under 0.1 µg/mL (water).

For `c1cc(-c2ccc3ccc4ccc(-c5cccc6ccccc56)nc4c3n2)cc(-c2ccc3ccc4ccc(-c5cccc6ccccc56)nc4c3n2)c1` [ADT-14], the solubility at 1 h runs as follows: (aqueous buffer) 2.8 µg/mL (≈ 4.08 µM); (water) under 0.1 µg/mL.

With `c1cnc2c(c1)ccc1cccnc12` [1,10-phenanthroline, reference compound], the solubility at 1 h by setting is: (aqueous buffer) at least 100 µg/mL; (water) at least 100 µg/mL.

In turn, `c1ccc(-c2ccc3ccc4ccc(-c5cccc(-c6ccc7ccc8ccc(-c9ccccc9)nc8c7n6)c5)nc4c3n2)cc1` [ADT-2] showed a solubility at 1 h (aqueous buffer) of 3.4 µg/mL (≈ 5.8 µM) and a solubility at 1 h (water) of under 0.1 µg/mL.

On to `c1cnc2c(c1)ccc1ccc(-c3cc(-c4ccc5ccc6cccnc6c5n4)cc(-c4ccc5ccc6cccnc6c5n4)c3)nc12` [ADT-18], for which the solubility at 1 h was 1.3 µg/mL (≈ 2.12 µM) (aqueous buffer) and under 0.1 µg/mL (water).

As for `c1cnc2c(c1)ccc1ccc(-c3cccc4c(-c5ccc6ccc7cccnc7c6n5)cccc34)nc12` [ADT-7], the solubility at 1 h is, setting by setting: (aqueous buffer) 4.5 µg/mL (≈ 9.29 µM); (water) under 0.1 µg/mL.

Regarding `c1cnc2c(c1)ccc1ccc(-c3ccc(-c4ccc5ccc6cccnc6c5n4)cc3)nc12` [ADT-3], the solubility at 1 h is, setting by setting: (aqueous buffer) 4.2 µg/mL (≈ 9.67 µM); (water) under 0.1 µg/mL.

`CC(C)(C)c1ccc(-c2ccc3ccc4ccc(-c5cccc(-c6ccc7ccc8ccc(-c9ccc(C(C)(C)C)cc9)nc8c7n6)c5)nc4c3n2)cc1` [ADT-11]: the solubility at 1 h by setting is: (aqueous buffer) 2.9 µg/mL (≈ 4.15 µM); (water) under 0.1 µg/mL.

For `c1cc(-c2ccc3ccc4cccnc4c3n2)cc(-c2ccc3ccc4cccnc4c3n2)c1` [ADT-1], the solubility at 1 h was 5 µg/mL (≈ 11.5 µM) (aqueous buffer) and under 0.1 µg/mL (water).

Consider `c1ccc(-c2ccc3ccc4ccc(-c5ccc6ccc(-c7ccc8ccc9ccc(-c%10ccccc%10)nc9c8n7)cc6c5)nc4c3n2)cc1` [ADT-6], for which the solubility at 1 h runs as follows: (aqueous buffer) 2.6 µg/mL (≈ 4.08 µM); (water) under 0.1 µg/mL.

As to `c1cc(-c2ccc(-c3ccc4ccc5cccnc5c4n3)cc2)cc(-c2ccc(-c3ccc4ccc5cccnc5c4n3)cc2)c1` [ADT-9], the solubility at 1 h runs as follows: (aqueous buffer) 3 µg/mL (≈ 5.11 µM); (water) under 0.1 µg/mL.

The molecule `c1cc(-c2cccc(-c3ccc4ccc5cccnc5c4n3)c2)cc(-c2ccc3ccc4cccnc4c3n2)c1` [ADT-17] yielded a solubility at 1 h (aqueous buffer) of 4.6 µg/mL (≈ 9.01 µM) and a solubility at 1 h (water) of under 0.1 µg/mL.

In the case of `O=S(=O)(O)c1ccc(-c2ccc3ccc4ccc(-c5cccc(-c6ccc7ccc8ccc(-c9ccc(S(=O)(=O)O)cc9)nc8c7n6)c5)nc4c3n2)cc1` [ADT-21], the concentration in solution (aqueous buffer) (solubility at 1 h) was 6.3 µg/mL (≈ 8.44 µM) and the solubility at 1 h (water) is under 0.1 µg/mL.

As to `c1cnc2c(c1)ccc1ccc(-c3ccc(C(c4ccc(-c5ccc6ccc7cccnc7c6n5)cc4)(c4ccc(-c5ccc6ccc7cccnc7c6n5)cc4)c4ccc(-c5ccc6ccc7cccnc7c6n5)cc4)cc3)nc12` [ADT-19], the solubility at 1 h reads like this: (aqueous buffer) under 0.1 µg/mL; (water) under 0.1 µg/mL.

Take `Nc1cc2cccnc2c2ncccc12` [5-amino-1,10-phenanthroline, reference compound]: the solubility at 1 h is at least 100 µg/mL (aqueous buffer) and at least 100 µg/mL (water).

(Values after patent US9748593B2, “Polymer electrolyte composition, and polymer electrolyte membrane, membrane electrode complex and solid polymer-type fuel cell each produced using same” (TORAY INDUSTRIES, INC., priority 2012, dated 2017).)
